Reference: PMC5431435, “A short artificial antimicrobial peptide shows potential to prevent or treat bone infections” (Scientific Reports, 2017)
≈ marks a conversion by molar mass, not a printed value.

How the values were obtained:
[1] = system: human primary osteoblast-like cells; type: cell-based
Method: (§1) (1) For the cytotoxicity test, 1 × 10^4 cells were seeded in 48-well plates with cultivation medium (CM) DMEM/Ham’s F-12 (D/H; Biochrom, Germany) + 10% fetal calf serum (FCS; Biochrom, Germany) + 1% penicillin/streptomycin (P/S; Biochrom, Germany) + 0.05 mM L-ascorbic-2 phosphate (L-Asc) + 0.05 mM β-glycerolphosphate (β-Glyc) and incubated overnight at 37 °C, 5% CO2 and 95% relative humidity. After adding the AMPs (3–542 µg/ml - depending on the AMP) or gentamicin (8–1024 µg/ml) in CM with 1% FCS, without Pen/Strep, cells were cultured for three days. Cell viability was determined with an AlamarBlue® assay before adding the AMPs and after 3 days. Alkaline phosphatase activity was measured on day 3.
Alamar Blue® (Biozol, Germany) was done according to the manufacturer’s instruction.

[2] = system: S. aureus internalized in human primary osteoblast-like cells; assay: Effect against internalized bacteria; type: cell-based, Staphylococcus aureus; details: 7.5 μg/ml, n = 7
Method: Human primary osteoblast-like cells were cultivated in 24-well plates with cultivation medium until they reached a minimum confluence of 80%. For the experiment, cells were washed and S. aureus (ATCC 29213) in cultivation medium added (~2 × 10^7 cfu/ml). After an incubation of 45 minutes, extracellular bacteria were killed using 200 µg/ml gentamicin dissolved in CM with 10% FCS, without P/S. After 1 hour incubation, gentamicin solution was removed, cells washed three times and AMP2 (33 and 67 µg/ml) in CM with only 1% FCS + no P/S added for 4 and 24 hours. As reference, 7.5 µg/ml rifampicin was used. All incubation steps were done in an incubator with 37 °C, 95% humidity and 5% CO2. For determination of the internalized bacteria, cells were lysed and the supernatant plated on CA plates. Experiment were done with n = 7.

S. aureus biofilm = assay: Biofilm assay by microcalorimetry and plating (MBCB); type: cell-based, Staphylococcus aureus; details: 128 µg/ml daptomycin, calorimetry and plating (data not shown)
Method: To confirm MIC of the AMP2 by isothermal microcalorimetry, three different bouillons were tested: Mueller-Hinton II bouillon with adjusted cations (MH^++; BBL, Germany), Mueller-Hinton bouillon with low cations (MH^+; with 3–4 mg/l Ca^2+ and 5–6 mg/l Mg^2+; Oxoid, Germany) and Mueller-Hinton bouillon without cations (MH^−; Merck, Germany). AMP2 concentrations of 2–33 µg/ml were tested with the three different bouillons and gentamicin concentrations of 0.125–2 µg/ml were analyzed with MH^++. Staphylococcus aureus (ATCC 29213, 300 µl with 10^5 cfu/ml) was added to each microcalorimetry glass ampoule (Waters; Germany) containing 3.7 ml of AMP or gentamicin solution of (n = 3). The ampoules were hermetically sealed and heat flow (W) was measured for 24 hours in the calorimeter TAM III (TA Instruments, USA). For the biofilm assay, S. aureus biofilm was grown on glass beads (4 mm diameter, 60 µm pores; ROBU Glasfilter-Geräte, Germany) in MH^++ bouillon at 37 °C in an aerobe atmosphere for 24 hours. After washing with sodium chloride, beads were incubated with AMP2 (133, 267, 533 µg/ml) or daptomycin (128 µg/ml) in MH^++ bouillon for another 24 hours at 37 °C. Beads were washed again and added to the glass ampoule with fresh MH^++ bouillon. The total heat (J) was measured for 48 hours in the calorimeter. A concentration, which inhibits minimum 90% of biofilm, can be defined as the minimal biofilm inhibitory concentration (MICB). All samples were tested with n = 6.
Furthermore, the MBC for biofilms (MBCB) where 99.9% of all bacteria are killed was determined. After measurement, bouillon and glass beads were plated on CA plates and incubated for 24 hours at 37 °C in an aerobe atmosphere.

S. aureus MRSA = assay: Broth microdilution MIC and plating MBC, clinical isolate; type: cell-based; details: Staphylococcus aureus, MH++ (with cations), n = 4–8
Text: (§2) The strains Escherichia coli (ATCC 25922), Enterococcus faecalis (ATCC 29212), Pseudomonas aeruginosa (ATCC 27853), Staphylococcus aureus (ATCC 29213) were used. In addition, following clinical isolates were used: Staphylococcus epidermidis (PIA 8400, isolated from blood cultures[48]), and two Staphylococcus aureus (MRSA and MSSA, both isolated from osteosyntheses material, kindly provided by Andrej Trampuz, Charité).
(§3) To determine the minimal inhibitory concentration (MIC), classical broth microdilution method was performed after protocols from Wiegand et al.[15]. The influence of cations was analyzed by using cation adjusted Mueller-Hinton bouillon II with 20–25 mg/l Ca^2+ and 10–12.5 mg/l Mg^2+ (MH^++; BBL, Germany) or Mueller-Hinton bouillon without cations (MH^−; Merck, Germany) (n = 4–8).
(§4) The maximal concentration of the AMPs was between 200–271 µg/ml. The differences in the AMP concentration are due to the purity of the peptides (absorption coefficient from 5.19 to 9.36).

S. aureus MSSA = assay: as above; type: cell-based; details: Staphylococcus aureus
Text: as §2, §3, §4

P. aeruginosa ATCC 27853 = assay: Broth microdilution MIC and plating MBC; type: cell-based; details: Pseudomonas aeruginosa; for MIC: 37 °C, 18–24 h
Method: as §3, §4

E. coli ATCC 25922 = assay: Broth microdilution MIC and plating MBC; type: cell-based; details: Escherichia coli, ATCC25922
Method: as §3, §4

S. aureus ATCC 29213 = assay: Broth microdilution MIC and plating MBC; type: cell-based; details: Staphylococcus aureus
Method: as §3, §4

E. faecalis ATCC 29212 = assay: Broth microdilution MIC and plating MBC; type: cell-based; details: Enterococcus faecalis, ATCC29212, MH++ (with cations), n = 4–8
Method: as §3, §4

S. epidermidis PIA 8400 = assay: Broth microdilution MIC and plating MBC; type: cell-based; details: Staphylococcus epidermidis; for MIC: 1–5 × 10^5 cfu/ml, 37 °C, 18–24 h; for MBC: plated on Columbia-agar overnight 37 °C
Method: as §3, §4

S. aureus (ATCC 29213) = assay: Zone of inhibition test of PDLLA-coated titanium wires; type: cell-based, Staphylococcus aureus; details: 10% w/w in poly(D,L-lactide) coating, n = 3, mean with standard deviation; day not given
Method: Titanium wires (diameter 1 mm, Synthes, USA) were coated with Poly(D,L-lactide) (PDLLA, Boehringer Ingelheim, Germany) and incorporated AMP2 at three different concentrations: 10% w/w, 20% w/w, or 30% w/w. Gentamicin/PDLLA (10% w/w) or PDLLA coated wires served as control. Briefly, 100 mg PDLLA was solved in 1.5 ml ethyl acetate and the wires were coated in a dipping procedure. Details of the coating were described previously. Three nails of each group were placed on Mueller-Hinton agar plates plated with S. aureus (ATCC 29213) and the zone of inhibition (ZOI) was quantified after 1, 3, 7, and 14 days using ImageJ software.

planktonic S. aureus = assay: MIC by isothermal microcalorimetry, planktonic bacteria; type: cell-based, Staphylococcus aureus; details: Staphylococcus aureus; MH++, heat flow 24 hours, n = 3; read-out: MIC (calorimetry)
Method: Mueller-Hinton II bouillon with adjusted cations (MH^++; BBL, Germany), Mueller-Hinton bouillon with low cations (MH^+; with 3-4 mg/l Ca^2+ and 5-6 mg/l Mg^2+; Oxoid, Germany) and Mueller-Hinton bouillon without cations (MH^-; Merck, Germany). AMP2 concentrations of 2-33 μg/ml were tested with the three different bouillons and gentamicin concentrations of 0.125-2 μg/ml were analyzed with MH^++. Staphylococcus aureus (ATCC 29213, 300 μl with 10^5 cfu/ml) was added to each microcalorimetry glass ampoule (Waters; […] The ampoules were hermetically sealed and heat flow (W) was measured for 24 hours in the calorimeter TAM III (TA Instruments, USA). […] ROBU […], Germany) in MH^++ bouillon at 37 °C in an aerobe atmosphere for 24 hours. […] Beads were washed again and added to the glass ampoule with fresh MH^++ bouillon. The total heat (J) was measured for 48 hours in the calorimeter. A concentration, which inhibits minimum 90% of biofilm, can be defined as the minimal biofilm inhibitory concentration (MICB). All samples were tested with n = 6.

[3] = system: human primary osteoblast-like cells; type: cell-based; remark: listed apart in the source
Method: as §1

[4] = ATCC27853, MH++ (with cations), n = 4–8
[5] = ATCC27853, MH− (without cations), n = 4

Q: “RRRIKIRWY [AMP4, 9mer cationic antimicrobial peptide … from an optimized peptide library]” was tested. Which “concentrations with no negative effect on cell viability” value [1] did it give?
A: The value was less than 251 µg/mL.

Q: And the “concentrations with significant inhibition of viability compared to the control group” value [1]?
A: Its value is no less than 251 µg/mL.

Q: For CO[C@H]1/C=C/O[C@@]2(C)Oc3c(C)c(O)c4c(O)c(c(/C=N/N5CCN(C)CC5)c(O)c4c3C2=O)NC(=O)/C(C)=C\C=C\[C@H](C)[C@H](O)[C@@H](C)[C@@H](O)[C@@H](C)[C@H](OC(C)=O)[C@@H]1C [rifampicin, reference compound], which “internalized bacteria compared to 0 μg/ml AMP [= 100%]” value ([2]; 4 h) is on record?
A: Its value is 15%.

Q: And the “internalized bacteria compared to 0 μg/ml AMP [= 100%]” value ([2]; 24 h)?
A: Its value is 0.0006%.

Q: With daptomycin [reference compound] as the compound, how does the biofilm growth (S. aureus biofilm) read?
A: Its biofilm growth is “completely inhibited”.

Q: Which MIC (S. aureus MRSA) does the source give for CNC(C)C1CCC(N)C(OC2C(N)CC(N)C(OC3OCC(C)(O)C(NC)C3O)C2O)O1 (centres unmarked) [gentamicin] here?
A: Its MIC is greater than 32 µg/mL.

Q: What about the MBC (S. aureus MSSA; MH++ (with cations), n = 4–8) of the same compound?
A: Its MBC is 0.125 µg/mL (≈ 0.262 µM).

Q: And the MIC (S. aureus MSSA; MH++ (with cations), n = 4–8)?
A: Its MIC is 0.125 µg/mL (≈ 0.262 µM).

Q: And the MBC (S. aureus MSSA; MH− (without cations), n = 4)?
A: The MBC was 1 µg/mL (≈ 2.09 µM).

Q: What about the MIC (S. aureus MSSA; MH− (without cations), n = 4) of the same compound?
A: The MIC was 0.25 µg/mL (≈ 0.523 µM).

Q: What about the MIC (P. aeruginosa ATCC 27853; [4]) of the same compound?
A: Its MIC is 1 µg/mL (≈ 2.09 µM).

Q: What about the MBC (P. aeruginosa ATCC 27853; [4]) of the same compound?
A: Its MBC is 4 µg/mL (≈ 8.38 µM).

Q: And the MIC (P. aeruginosa ATCC 27853; [5])?
A: The MIC was 0.25 µg/mL (≈ 0.523 µM).

Q: And the MBC (P. aeruginosa ATCC 27853; [5])?
A: Its MBC is 1 µg/mL (≈ 2.09 µM).

Q: What about the MBC (E. coli ATCC 25922; MH++ (with cations), n = 4–8) of the same compound?
A: The MBC was 2 µg/mL (≈ 4.19 µM).

Q: And the MIC (E. coli ATCC 25922; MH− (without cations), 37 °C, 18–24 h, n = 4)?
A: Its MIC is 1 µg/mL (≈ 2.09 µM).

Q: What about the MBC (S. aureus ATCC 29213; ATCC29213, MH++ (with cations), n = 4–8) of the same compound?
A: Its MBC is 0.5 µg/mL (≈ 1.05 µM).

Q: What about the MBC (S. aureus ATCC 29213; ATCC29213, MH− (without cations), n = 4) of the same compound?
A: Its MBC is 1 µg/mL (≈ 2.09 µM).

Q: What about the MIC (S. aureus ATCC 29213; ATCC29213, MH++ (with cations), 37 °C, 18–24 h, n = 4–8) of the same compound?
A: The MIC was 0.5 µg/mL (≈ 1.05 µM).

Q: And the MIC (E. faecalis ATCC 29212; 37 °C, 5% CO2, 18–24 h)?
A: Its MIC is 16 µg/mL (≈ 33.5 µM).

Q: And the MBC (E. faecalis ATCC 29212)?
A: Its MBC is 32 µg/mL (≈ 67 µM).

Q: And the MIC (S. epidermidis PIA 8400; PIA8400, MH++ (cation adjusted Mueller-Hinton bouillon II), n = 4–8)?
A: Its MIC is 0.25 µg/mL (≈ 0.523 µM).

Q: And the MBC (S. epidermidis PIA 8400; PIA8400, MH++ (with cations), n = 4–8)?
A: Its MBC is 1 µg/mL (≈ 2.09 µM).

Q: And the MIC (S. epidermidis PIA 8400; PIA8400, MH− (Mueller-Hinton bouillon without cations), n = 4)?
A: The MIC was 0.125 µg/mL (≈ 0.262 µM).

Q: What about the MBC (S. epidermidis PIA 8400; PIA8400, MH− (without cations), n = 4) of the same compound?
A: Its MBC is 0.25 µg/mL (≈ 0.523 µM).

Q: What about the ZOI (S. aureus (ATCC 29213)) of the same compound?
A: The ZOI was 10.8 +/- 0.6 cm².

Q: What about the MIC (planktonic S. aureus) of the same compound?
A: The MIC was 1 µg/mL (≈ 2.09 µM).

Q: What does the source list for “WRKFWKYLK [AMP5, 9mer cationic antimicrobial peptide … from an optimized peptide library]”?
A: concentrations with no negative effect on cell viability [1]: < 63 µg/mL; concentrations with significant inhibition of viability compared to the control group [1]: ≥ 63 µg/mL; concentrations with significant inhibition of alkaline phosphatase activity compared to the control group [3]: ≥ 63 µg/mL

Q: What does the source list for “RTKKWIVWI [AMP3, 9mer cationic antimicrobial peptide … from an optimized peptide library]”?
A: concentrations with no negative effect on cell viability [1]: < 68 µg/mL; concentrations with significant inhibition of viability compared to the control group [1]: ≥ 68 µg/mL

Q: “YRLRVKWKW [AMP1, 9mer cationic antimicrobial peptide … from an optimized peptide library]” was tested. Which “concentrations with no negative effect on cell viability” value [1] did it give?
A: The value was less than 100 µg/mL.

Q: And the “concentrations with significant inhibition of viability compared to the control group” value [1]?
A: The value was no less than 100 µg/mL.

Q: What about the “concentrations with significant inhibition of alkaline phosphatase activity compared to the control group” value [3] of the same compound?
A: The value was “all concentrations”.
